Reference: article PMC7206119, “RIP1 inhibition blocks inflammatory diseases but not tumor growth or metastases” (Cell Death and Differentiation, 2019)

Tests used:
Experiment in all cases: biochemical
Design in all cases: Thermo Fisher SelectScreen kinase panel: Z'-LYTE and Adapta activity, LanthaScreen binding
CamKII_alpha = biological target: T1, CamKII_alpha (Homo sapiens, UniProt Q9UQM7)
T1 construct: gene CAMK2A
Procedure, shortened: (§1)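 Single-concentration panel: 10 µM GNE684 in KINOMEscan scanMAX binding (468 kinases) and in a 221-kinase panel run as Z'-LYTE/Adapta activity or LanthaScreen binding assays.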

DDR1 = DDR1 (Homo sapiens, UniProt Q08345)
Procedure, shortened: as §1

SPHK1 = SPHK1 (Homo sapiens, UniProt Q9NYA1)
Procedure, shortened: as §1

CK1_gamma1 = biological target: T2, CK1_gamma1 (Homo sapiens, UniProt Q9HCP0)
T2 construct: gene CSNK1G1
Procedure, shortened: as §1

ZIPK = biological target: T3, ZIPK (Homo sapiens, UniProt O43293)
T3 construct: gene DAPK3
Procedure, shortened: as §1

DYRK3 = DYRK3 (Homo sapiens, UniProt O43781)
Procedure, shortened: as §1

BTK = BTK (Homo sapiens, UniProt Q06187)
Procedure, shortened: as §1

CK1_gamma2 = biological target: T4, CK1_gamma2 (Homo sapiens, UniProt P78368)
T4 construct: gene CSNK1G2
Procedure, shortened: as §1

NEK6 = NEK6 (Homo sapiens, UniProt Q9HC98)
Procedure, shortened: as §1

JNK3 = biological target: T5, JNK3 (Homo sapiens, UniProt P53779)
T5 construct: gene MAPK10
Procedure, shortened: as §1

CLK1 = CLK1 (Homo sapiens, UniProt P49759)
Procedure, shortened: as §1

Mer = biological target: T6, Mer (Homo sapiens, UniProt Q12866)
T6 construct: gene MERTK
Procedure, shortened: as §1

CDK9/cyclinT1 = CDK9/cyclinT1 (Homo sapiens, UniProt P50750)
Procedure, shortened: as §1

TAO2 = biological target: T7, TAO2 (Homo sapiens, UniProt Q9UL54)
T7 construct: gene TAOK2
Procedure, shortened: as §1

MSK1 = biological target: T8, MSK1 (Homo sapiens, UniProt O75582)
T8 construct: gene RPS6KA5
Procedure, shortened: as §1

RSK1 = biological target: T9, RSK1 (Homo sapiens, UniProt Q15418)
T9 construct: gene RPS6KA1
Procedure, shortened: as §1

PKG1_alpha = biological target: T10, PKG1_alpha (Homo sapiens, UniProt Q13976)
T10 construct: gene PRKG1; isoform alpha
Procedure, shortened: as §1

TRKB = biological target: T11, TRKB (Homo sapiens, UniProt Q16620)
T11 construct: gene NTRK2
Procedure, shortened: as §1

MYLK3(caMLCK) = biological target: T12, MYLK3(caMLCK) (Homo sapiens, UniProt Q32MK0)
T12 construct: cardiac MLCK
Procedure, shortened: as §1

ALK2 = biological target: T13, ALK2 (Homo sapiens, UniProt Q04771)
T13 construct: gene ACVR1
Procedure, shortened: as §1

PAK1 = PAK1 (Homo sapiens, UniProt Q13153)
Procedure, shortened: as §1

PLK3 = PLK3 (Homo sapiens, UniProt Q9H4B4)
Procedure, shortened: as §1

Tpl2 = biological target: T14, Tpl2 (Homo sapiens, UniProt P41279)
T14 construct: gene MAP3K8
Procedure, shortened: as §1

Sequence of CDK9/cyclinT1 (P50750 whole entry): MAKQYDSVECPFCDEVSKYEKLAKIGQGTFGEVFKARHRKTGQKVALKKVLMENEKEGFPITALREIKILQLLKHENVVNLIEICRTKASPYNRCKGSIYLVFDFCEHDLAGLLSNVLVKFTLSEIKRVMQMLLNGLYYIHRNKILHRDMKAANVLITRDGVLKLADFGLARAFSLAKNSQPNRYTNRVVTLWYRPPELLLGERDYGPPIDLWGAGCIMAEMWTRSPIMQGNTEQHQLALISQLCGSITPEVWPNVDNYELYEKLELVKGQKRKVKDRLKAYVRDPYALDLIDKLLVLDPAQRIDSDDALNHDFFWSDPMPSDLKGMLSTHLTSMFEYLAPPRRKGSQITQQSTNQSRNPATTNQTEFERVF
Sequence of CDK9/cyclinT1 (O60563 whole entry partner): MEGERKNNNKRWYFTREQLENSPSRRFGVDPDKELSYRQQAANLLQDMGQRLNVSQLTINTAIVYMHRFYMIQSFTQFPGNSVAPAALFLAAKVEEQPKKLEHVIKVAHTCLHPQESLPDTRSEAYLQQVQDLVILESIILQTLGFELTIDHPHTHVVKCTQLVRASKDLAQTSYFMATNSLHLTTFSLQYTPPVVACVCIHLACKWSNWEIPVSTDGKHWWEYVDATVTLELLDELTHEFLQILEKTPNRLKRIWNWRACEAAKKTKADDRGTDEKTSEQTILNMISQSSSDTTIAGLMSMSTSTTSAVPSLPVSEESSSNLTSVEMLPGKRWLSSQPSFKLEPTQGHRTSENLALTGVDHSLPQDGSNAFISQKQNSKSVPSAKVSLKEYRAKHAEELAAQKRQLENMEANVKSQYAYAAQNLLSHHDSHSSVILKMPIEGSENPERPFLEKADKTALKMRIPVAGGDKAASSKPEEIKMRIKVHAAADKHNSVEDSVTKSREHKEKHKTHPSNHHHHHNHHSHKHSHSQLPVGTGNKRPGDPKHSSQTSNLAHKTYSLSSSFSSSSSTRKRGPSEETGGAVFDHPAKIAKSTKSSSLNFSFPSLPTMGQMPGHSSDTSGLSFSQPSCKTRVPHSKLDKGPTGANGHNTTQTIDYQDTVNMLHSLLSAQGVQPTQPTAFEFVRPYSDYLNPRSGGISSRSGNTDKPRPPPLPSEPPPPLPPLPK
T4 sequence (P78368 whole entry): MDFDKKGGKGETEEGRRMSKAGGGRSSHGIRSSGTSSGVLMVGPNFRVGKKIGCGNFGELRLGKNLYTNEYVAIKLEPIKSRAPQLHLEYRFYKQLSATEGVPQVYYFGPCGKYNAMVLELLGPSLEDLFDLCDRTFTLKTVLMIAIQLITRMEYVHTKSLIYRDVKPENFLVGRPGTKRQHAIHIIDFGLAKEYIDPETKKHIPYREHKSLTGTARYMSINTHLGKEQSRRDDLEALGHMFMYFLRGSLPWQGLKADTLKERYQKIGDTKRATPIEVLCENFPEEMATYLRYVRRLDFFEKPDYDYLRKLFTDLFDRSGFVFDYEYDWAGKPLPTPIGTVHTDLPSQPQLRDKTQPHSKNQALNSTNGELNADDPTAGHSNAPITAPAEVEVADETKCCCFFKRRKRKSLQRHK
T12 sequence (Q32MK0 whole entry): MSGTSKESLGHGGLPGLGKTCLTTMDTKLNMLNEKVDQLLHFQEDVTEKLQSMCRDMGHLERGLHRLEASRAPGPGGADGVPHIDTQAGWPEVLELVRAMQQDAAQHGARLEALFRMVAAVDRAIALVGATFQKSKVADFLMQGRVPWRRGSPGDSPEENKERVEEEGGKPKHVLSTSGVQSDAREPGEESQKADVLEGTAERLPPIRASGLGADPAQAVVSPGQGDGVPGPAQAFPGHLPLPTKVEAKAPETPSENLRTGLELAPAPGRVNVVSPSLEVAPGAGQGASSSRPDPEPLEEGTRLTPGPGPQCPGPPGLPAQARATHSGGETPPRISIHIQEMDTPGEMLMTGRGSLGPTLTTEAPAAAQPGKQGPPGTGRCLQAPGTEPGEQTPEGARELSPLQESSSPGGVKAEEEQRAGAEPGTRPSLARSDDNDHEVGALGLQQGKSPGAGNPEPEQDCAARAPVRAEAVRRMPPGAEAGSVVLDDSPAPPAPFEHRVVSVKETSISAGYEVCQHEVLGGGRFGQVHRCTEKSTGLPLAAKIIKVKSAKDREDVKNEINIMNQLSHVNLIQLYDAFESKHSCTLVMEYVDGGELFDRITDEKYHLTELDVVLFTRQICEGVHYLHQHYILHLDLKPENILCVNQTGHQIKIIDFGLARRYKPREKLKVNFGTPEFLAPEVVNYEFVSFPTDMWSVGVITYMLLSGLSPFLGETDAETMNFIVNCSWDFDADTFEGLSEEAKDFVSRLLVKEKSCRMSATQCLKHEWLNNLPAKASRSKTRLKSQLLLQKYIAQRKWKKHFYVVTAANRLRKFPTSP
Sequence of SPHK1 (Q9NYA1 whole entry): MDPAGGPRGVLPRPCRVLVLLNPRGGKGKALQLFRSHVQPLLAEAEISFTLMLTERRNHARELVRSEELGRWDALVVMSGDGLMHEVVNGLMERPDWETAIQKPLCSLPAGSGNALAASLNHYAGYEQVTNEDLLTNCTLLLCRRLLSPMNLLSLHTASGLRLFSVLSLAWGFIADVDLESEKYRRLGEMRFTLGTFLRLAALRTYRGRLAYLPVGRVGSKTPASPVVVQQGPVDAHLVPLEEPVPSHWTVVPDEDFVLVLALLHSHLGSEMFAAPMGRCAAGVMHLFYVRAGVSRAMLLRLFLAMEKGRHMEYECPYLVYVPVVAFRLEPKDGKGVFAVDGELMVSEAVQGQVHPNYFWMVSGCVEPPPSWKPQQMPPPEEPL
Sequence of BTK (Q06187 whole entry): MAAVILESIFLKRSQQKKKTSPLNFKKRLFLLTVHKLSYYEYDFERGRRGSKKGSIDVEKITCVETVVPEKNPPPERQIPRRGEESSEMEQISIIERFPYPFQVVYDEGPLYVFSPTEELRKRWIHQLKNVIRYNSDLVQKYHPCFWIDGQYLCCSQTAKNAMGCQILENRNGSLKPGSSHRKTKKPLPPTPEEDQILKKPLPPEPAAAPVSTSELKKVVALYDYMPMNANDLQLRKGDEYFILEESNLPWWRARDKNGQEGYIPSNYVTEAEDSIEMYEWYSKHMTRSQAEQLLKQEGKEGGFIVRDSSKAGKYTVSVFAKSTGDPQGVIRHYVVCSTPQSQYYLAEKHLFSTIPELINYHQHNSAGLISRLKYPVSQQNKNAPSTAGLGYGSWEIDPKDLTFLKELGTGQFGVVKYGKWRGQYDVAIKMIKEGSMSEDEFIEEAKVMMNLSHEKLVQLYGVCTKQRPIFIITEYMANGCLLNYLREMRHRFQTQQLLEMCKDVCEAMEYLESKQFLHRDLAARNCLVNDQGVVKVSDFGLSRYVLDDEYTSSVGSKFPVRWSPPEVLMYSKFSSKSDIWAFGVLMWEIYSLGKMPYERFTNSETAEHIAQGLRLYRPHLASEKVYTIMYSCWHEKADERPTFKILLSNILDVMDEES
T14 sequence (P41279 whole entry): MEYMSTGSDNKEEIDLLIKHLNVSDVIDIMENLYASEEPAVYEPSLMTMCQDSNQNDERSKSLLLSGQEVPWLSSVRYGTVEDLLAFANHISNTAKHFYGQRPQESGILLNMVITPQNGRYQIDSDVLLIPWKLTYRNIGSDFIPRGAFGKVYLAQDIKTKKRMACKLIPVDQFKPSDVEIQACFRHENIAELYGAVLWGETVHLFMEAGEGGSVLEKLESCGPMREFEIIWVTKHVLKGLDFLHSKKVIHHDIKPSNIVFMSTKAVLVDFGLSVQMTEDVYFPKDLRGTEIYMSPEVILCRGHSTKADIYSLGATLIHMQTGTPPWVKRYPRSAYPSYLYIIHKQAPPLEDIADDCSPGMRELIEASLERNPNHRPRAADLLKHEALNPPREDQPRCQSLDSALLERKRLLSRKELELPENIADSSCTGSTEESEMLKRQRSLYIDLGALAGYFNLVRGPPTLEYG
T2 sequence (Q9HCP0 whole entry): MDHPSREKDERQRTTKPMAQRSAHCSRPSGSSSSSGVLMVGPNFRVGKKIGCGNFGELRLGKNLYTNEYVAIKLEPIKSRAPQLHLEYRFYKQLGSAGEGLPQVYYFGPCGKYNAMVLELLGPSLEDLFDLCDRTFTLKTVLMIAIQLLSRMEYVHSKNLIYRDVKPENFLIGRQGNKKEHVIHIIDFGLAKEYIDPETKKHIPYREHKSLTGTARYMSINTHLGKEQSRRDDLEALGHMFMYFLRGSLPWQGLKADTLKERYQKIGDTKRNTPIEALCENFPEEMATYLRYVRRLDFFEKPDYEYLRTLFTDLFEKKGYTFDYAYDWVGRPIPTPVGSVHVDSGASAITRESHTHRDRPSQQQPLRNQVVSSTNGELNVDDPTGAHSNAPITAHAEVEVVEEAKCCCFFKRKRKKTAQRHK
T9 sequence (Q15418 whole entry): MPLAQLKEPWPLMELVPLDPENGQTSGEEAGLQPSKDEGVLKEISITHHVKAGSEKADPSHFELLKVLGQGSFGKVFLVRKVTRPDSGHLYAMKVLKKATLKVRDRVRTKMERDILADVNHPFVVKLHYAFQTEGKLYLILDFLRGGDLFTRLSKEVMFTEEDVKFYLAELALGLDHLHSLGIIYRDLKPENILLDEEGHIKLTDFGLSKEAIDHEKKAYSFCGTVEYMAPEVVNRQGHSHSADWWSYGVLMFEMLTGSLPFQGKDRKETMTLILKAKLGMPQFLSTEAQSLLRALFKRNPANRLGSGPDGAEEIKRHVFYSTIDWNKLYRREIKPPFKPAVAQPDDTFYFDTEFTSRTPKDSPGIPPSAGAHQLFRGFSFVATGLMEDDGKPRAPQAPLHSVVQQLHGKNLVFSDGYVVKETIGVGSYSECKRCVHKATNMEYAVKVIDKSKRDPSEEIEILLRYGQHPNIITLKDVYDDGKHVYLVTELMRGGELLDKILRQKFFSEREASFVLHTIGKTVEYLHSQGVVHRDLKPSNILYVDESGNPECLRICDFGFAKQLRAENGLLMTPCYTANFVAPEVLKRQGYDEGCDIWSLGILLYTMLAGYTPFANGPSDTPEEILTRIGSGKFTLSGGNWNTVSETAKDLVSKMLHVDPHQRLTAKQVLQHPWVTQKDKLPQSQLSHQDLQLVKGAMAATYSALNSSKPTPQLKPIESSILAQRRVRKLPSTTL

With COc1cc2c(cn1)N(C)C(=O)[C@@H](NC(=O)c1nc3n(n1)[C@H](c1ccccc1)CC3)CC2 [GNE684, (S)-N-((S)-7-methoxy-1-methyl-2-oxo-2,3,4,5-tetrahydro-1H-pyrido[3,4-b]azepin-3-yl)-5-phenyl-6,7-dihydro-5H-pyrrolo[1,2-b][1,2,4]triazole-2-carboxamide] the inhibition at 10 µM (CamKII_alpha) was 6.5%, the inhibition at 10 µM (DDR1) was 4.5% and the inhibition at 10 µM (SPHK1) was 4.5%. It also gave an inhibition at 10 µM (CK1_gamma1) of 4%, an inhibition at 10 µM (ZIPK) of 1% and an inhibition at 10 µM (DYRK3) of 2%. It also gave an inhibition at 10 µM (BTK) of -3.5%, an inhibition at 10 µM (CK1_gamma2) of 2% and an inhibition at 10 µM (NEK6) of -2%. For the same molecule, the inhibition at 10 µM (JNK3) was 3%, the inhibition at 10 µM (CLK1) was -0.5% and the inhibition at 10 µM (Mer) was -5%. For the same molecule, the inhibition at 10 µM (CDK9/cyclinT1) was 9%, the inhibition at 10 µM (TAO2) was 1% and the inhibition at 10 µM (MSK1) was -4%. The inhibition at 10 µM (RSK1) was 4.5%, the inhibition at 10 µM (PKG1_alpha) was 7% and the inhibition at 10 µM (TRKB) was -5%. It also gave an inhibition at 10 µM (MYLK3(caMLCK)) of -11%, an inhibition at 10 µM (ALK2) of 2% and an inhibition at 10 µM (PAK1) of 2.5%. For the same molecule, the inhibition at 10 µM (PLK3) was 5% and the inhibition at 10 µM (Tpl2) was 7%.
